Test results: patent US12281123B2, “Benzoxazinone compounds as KLK5/7 dual inhibitors” (MOLECULAR SKIN THERAPEUTICS, INC., priority 2019, dated 2025)
Marks after values point to notes of the source that are not given here.

Experiments:
Type in all cases: biochemical
[1] = system: KLK proteases in human skin extract; experiment: Inhibition of protease activity in human skin extract; details: human skin extract; for Rate in Skin Assay: compound concentration not given
Experimental: Materials: The peptide substrates PS-01 (YRSR-pNA Tyr-Arg-Ser-Arg-pNA) (SEQ ID NO. 1) and PS-02 (Lys-His-Leu-Tyr-pNA) (SEQ ID NO. 2) were synthesized by Zamboni Chemical Solutions (Montreal, Canada). Human epidermis samples were obtained from Biopredic (Saint-Grégoire, France). The BCA protein assay kit was bought from VWR.
Preparation of skin extract: The epidermis was frozen and lyophilized. A sample of 15 mg lyophilized epidermis was immersed in 1 mL high salt buffer (100 mM Tris, 5 mM EDTA, 2M KCl, pH 8), frozen twice in dry ice and thawed. After incubation overnight at 4° C. and addition of six 2.4 mm metal beads, the sample was homogenized in a Bertin Precellys Homogenizer (Atkinson, NH) three times at […] for 20 seconds each and cooled in between for 30 seconds. After centrifugation at maximal speed in a desktop minifuge, the protein concentration of the supernatant was determined by BCA assay (˜0.5 mg/mL).
Inhibition of protease activity in skin extract: Stock solutions of 200, 66, 22 and 0 μM of the tested compound in DMSO were prepared. Substrate stocks of 1100 μM PS-01 and PS-02 were prepared by dissolving in water. The wells of a 384 well plate was filled with 50 μL 2× assay buffer (see above) and then 45 μL substrate stock and 5 μL of the test compound were added. The reaction was started by addition of 10 μL skin extract for the substrate PS-02 and 5 μL for the substrate PS-01. The substrate hydrolysis was monitored in multi-well plate reader at 405 nm.
Chromogenic substrate cleavage progressions of Compounds 1.001, 1.002, and 14 were tested according to human stratum corneum extract assay of Example 4 using KLK5 and KLK7 preferred chromogenic peptide substrates (PS-01 and PS-02). The proteolytic cleavage of KLK5 selective substrate in skin extract by Compounds 1.001, 1.002, and 14 are compared and shown in FIGS. 4A-4D. NSK refers to extract from skin freshly prepared; and OSK refers to extract from skin post freeze thaw.

[2] = target: T1, KLK7 (Homo sapiens, UniProt P49862); experiment: Recombinant KLK7 chromogenic IC50 assay; details: Table 2; assay protocol of Example 3; read-out: Recombinant KLK7 enzyme (IC50)
T1 construct: purchased R&D Biosystems (Minneapolis, MN) / R&Dsystems; host or cells: mouse myeloma cells
Excerpt: (§1) Human Kallikrein Proteins: Recombinant human KLK5 expressed in HEK293 was obtained from SpeedBio (Gaithersburg, MD). Recombinant proenzyme KLK-7 and recombinant proenzyme KLK-14 both expressed in mouse myeloma cells were from R&D Biosystems (Minneapolis, MN). Plasmin and thrombin were from Haematologic Technologies (Essex Junction, VT). Trypsin and Chymotrypsin were bought from Worthington Biochemical Corporation (Lakewood, NJ) and plasma kallikrein was from Prospec (East Brunswick, NJ). Neutrophil Elastase was obtained from Innovative Research (Peary Court, MI). Bovine recombinant enterokinase expressed in E. coli was bought from Sigma (St. Louis, MI). Matriptase expressed in E. coli was obtained from Enzo Life Sciences (Farmingdale, NY). The control inhibitors Nafamostat mesylate was from Sigma (St. Louis, MI) and (2-(2-fluorophenyl)-5,6,7,8-tetrahydro-4H-benzo[4,5]thieno[2,3-d][1,3]oxazin-4-one was from Interbioscreen (Moskow, Russia).
(§2) Substrates: S-2288 (D-Ile-Pro-Arg-pNA), CS-PSA (MeO-Suc-Arg-Pro-Tyr-pNA), S-2266 (H-D-Val-Leu-Arg-pNA) and S-2288 (H-D-Ile-Pro-Arg-pNA) were bought from Diapharma (West Chester, OH). MeOSuccAla-Ala-Pro-Val-pNA was purchased from Sigma (St Louis, MI). The substrates were dissolved in water at 10 mM and were frozen in aliquots at −20° C.
Activation of KLK-7 and KLK-14: 150 μL 8 μM solution of the proenzymes of KLK-7 or KLK-14 in 50 mM Tris, 10 mM CaCl2, 150 mM NaCl, 0.05% (w/v) Brij-35, pH 7.5 were mixed with 150 μL 10 μg/mL bovine enterokinase in the same buffer and incubated for 2 h for KLK-7 and 1 h for KLK-14 at 37° C. After the incubation period, activation was stopped by addition of 6 μL 0.5 M EDTA pH 8.0.
(§3) Assays: All assays were performed in 384 well polystyrene plates coated overnight with 0.1% Tween 20 at 4° C. The plates were then washed twice with 100 μL water and dried. For the determination of IC50 values, the inhibitors were diluted in serial dilutions of 1:3 intervals into pure DMSO at 50 fold of the intended final concentrations in the assays. Usually eight inhibitor dilutions and one DMSO control were prepared. The substrates were diluted into water at 2.2-fold the final concentration in the assay mixture. The wells of the plate were filled with 50 μL of the enzyme diluted in 2× assay buffer (100 mM Tris, 200 mM NaCl, 0.2% PEG, 0.01% Tween, 2 mM EDTA, pH 8.0) at twofold the intended concentration. Then 5 μL DMSO, 2.2 μL inhibitor and 45 μL substrate were added to start the reaction. The assays were monitored at 37° C. in a multi well plate reader at a wavelength of 405 nm (Molecular Devices, San Jose, CA) for 1 h. The tool inhibitor, nafamostat, was used as a control for trypsin, thrombin, KLK-5 and KLK-14 at 10 μM maximal concentration and (2-(2-fluorophenyl)-5,6,7,8-tetrahydro-4H-benzo[4,5]thieno[2,3-d][1,3]oxazin-4-one for KLK-7 at 5 μM.
(§4) The table summarizes assay conditions for the individual enzymes:
(§5) Data analysis: The progress curves of substrate hydrolysis were analyzed by linear regression of the final 20 min of the reaction. Fit of the dose response of the resulting rates to the following equation yielded the IC50:
(§6) [formula] with 1) c: the background rate at the highest inhibitor concentration; 2) d: the rate of the control reaction; 3) IC50: the IC50 of the inhibitor; 4) x: the inhibitor concentration; and 5) b: the slope.
(§7) Proteases: KLK5 (SpeedBioSystems); KLK7 (R&Dsystems) was activated with enterokinase (2 hours, 37° C.) prior to assay; Trypsin (Sigma Aldrich); Chymotrypsin (Sigma Aldrich); Factor Xa (Haematologic Technologies); Plasmin (Haematologic Technologies); KLK14 (R&Dsystems) was activated with enterokinase (1 hour, 37° C.) prior to assay; Thrombin (Haematologic Technologies); Neutrophil Elastase (Athens Research&Technology); and KLK1 (Prospec).

[3] = target: T2, Recombinant human KLK5 (Homo sapiens, UniProt Q9Y337); experiment: Recombinant KLK5 chromogenic IC50 assay; details: Table 2; assay protocol of Example 3; read-out: Recombinant KLK5 enzyme (IC50)
T2 construct: purchased SpeedBio (Gaithersburg, MD) / SpeedBioSystems; host or cells: HEK293
T2 sequence (Q9Y337 23-293): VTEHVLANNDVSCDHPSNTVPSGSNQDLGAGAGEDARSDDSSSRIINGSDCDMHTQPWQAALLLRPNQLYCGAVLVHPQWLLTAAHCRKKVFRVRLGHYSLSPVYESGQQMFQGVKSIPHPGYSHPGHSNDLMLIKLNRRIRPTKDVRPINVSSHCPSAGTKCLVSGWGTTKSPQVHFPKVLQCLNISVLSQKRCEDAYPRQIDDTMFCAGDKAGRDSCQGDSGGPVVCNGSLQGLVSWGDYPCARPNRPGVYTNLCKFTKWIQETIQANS
Excerpt: as §1, §2, §3, §4, §5, §6, §7

T1 sequence (P49862 30-253): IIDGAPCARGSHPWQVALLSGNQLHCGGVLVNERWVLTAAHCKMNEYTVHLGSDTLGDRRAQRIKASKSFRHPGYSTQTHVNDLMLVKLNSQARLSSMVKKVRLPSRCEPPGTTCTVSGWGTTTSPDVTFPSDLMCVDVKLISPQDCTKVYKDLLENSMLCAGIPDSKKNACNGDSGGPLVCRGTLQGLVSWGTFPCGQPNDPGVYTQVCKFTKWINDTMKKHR

Row | Structure (SMILES) | Initial rate of proteolytic activity ([1]; Conc 1 μM) | Initial rate of substrate hydrolysis ([1]; Conc 1 μM) | Initial rate of proteolytic activity ([1]; Conc 3.3 μM) | Initial rate of substrate hydrolysis ([1]; Conc 3.3 μM) | Rate in Skin Assay [1] | IC50 [2] [nM] | IC50 [3] [nM]
1 | CS(=O)(=O)c1ccccc1-c1nc2cc3c(cc2c(=O)o1)OCCO3 [Compound 14, reference compound] | 0.13* Absorbance405/min | 0.1* Absorbance405/min | 0.11* Absorbance405/min | 0.08* Absorbance405/min | 0.14* Absorbance405/min | 130 | 240
2 | CS(=O)(=O)c1ccc(CO)cc1-c1nc2cc3c(cc2c(=O)o1)OCCO3 [Compound 1.002, 2-(5-(Hydroxymethyl)-2-(methylsulfonyl)phenyl)-7,8-dihydro-4H-[1,4]dioxino[2′,3′:4,5]benzo[1,2-d][1,3]oxazin-4-one] | 0.1* Absorbance405/min | 0.06* Absorbance405/min | 0.09* Absorbance405/min | 0.05* Absorbance405/min | 0.009* Absorbance405/min | 220 | 1570
